Patent US6984649B1, “Pyridine derivatives” (Bayer Aktiengesellschaft, priority 2000, dated 2006)

system: A549 human lung epithelium cell line; experiment: RANTES production in response to TNF-α from A549 cells; format: cell-based; conditions: Homo sapiens, A549, A549 cells, 100 ng/ml TNF-α, read-out: Cellular activity grade (A549) (Cellular IC50)
In short: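 Cells (4×10^4/well) in D-MEM/10% FCS preincubated 1 h at 37 °C with compound in 1% DMSO, then stimulated with 100 ng/ml TNF-α for 24 h. Supernatant RANTES quantified by Eu-labelled sandwich immunoassay (time-resolved fluorescence, ex 340/em 615 nm) against recombinant human RANTES standard.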

Question: With `O=c1[nH]c2nc(-c3c(O)cccc3OCC3CC3)cc(C3CCCNC3)c2cc1[N+](=O)[O-]` (centres unmarked) [Example 25-05] as the molecule, how does the IC50 read?
Answer: Its IC50 is 1000 to 10000 nM.

Question: Which IC50 does the source give for `N#Cc1cc2c(C3CCCNC3)cc(-c3c(O)cccc3OCC3CC3)nc2[nH]c1=O` (centres unmarked) [Example 25-06] here?
Answer: Its IC50 is under 1000 nM.

Question: Which IC50 does the source give for `O=c1[nH]c2nc(-c3c(O)cccc3OCC3CC3)cc(C3CCCNC3)c2cc1S(=O)(=O)c1ccccc1` (centres unmarked) [Example 25-07] here?
Answer: The IC50 was under 1000 nM.

Question: `NC(=O)c1cc2c(C3CCCNC3)cc(-c3c(O)cccc3OCC3CC3)nc2[nH]c1=O` (centres unmarked) [Example 25-08] was tested. Which IC50 did it give?
Answer: Its IC50 is under 1000 nM.

Question: `CCOC(=O)C1Cc2c(C3CCCNC3)cc(-c3c(O)cccc3OCC3CC3)nc2NC1=O` (centres unmarked) [Example 26-03] was tested. Which IC50 did it give?
Answer: Its IC50 is under 1000 nM.

Question: With `CCOC(=O)C1Cc2c(C3CCNCC3)cc(-c3c(O)cccc3OCC3CC3)nc2NC1=O` (centres unmarked) [Example 26-04] as the molecule, how does the IC50 read?
Answer: Its IC50 is under 1000 nM.

Question: How did the IC50 turn out when `NC(=O)C1Cc2c(C3CCCNC3)cc(-c3c(O)cccc3OCC3CC3)nc2NC1=O` (centres unmarked) [Example 26-05] was run?
Answer: The IC50 was under 1000 nM.

Question: How did the IC50 turn out when `CCCOc1cccc(O)c1-c1cc(C2CCCNC2)c2c(n1)NC(=O)C(C(=O)OCC)C2` (centres unmarked) [Example 26-06] was run?
Answer: Its IC50 is under 1000 nM.

Question: Which IC50 does the source give for `CCCOc1cccc(O)c1-c1cc(C2CCCNC2)c2c(n1)NC(=O)CC2` (centres unmarked) [Example 27-02] here?
Answer: The IC50 was under 1000 nM.

Question: With `O=C1CCc2c(C3CCCNC3)cc(-c3c(O)cccc3OCC3CC3)nc2N1` (centres unmarked) [Example 27-03, 7-[2-(cyclopropylmethoxy)-6-hydroxyphenyl]-5-(3-piperidinyl)-3,4-dihydro-1,8-naphthyridin-2(1H)-one] as the molecule, how does the IC50 read?
Answer: Its IC50 is under 1000 nM.

Question: With `O=C1CCc2c(C3CCNCC3)cc(-c3c(O)cccc3OCC3CC3)nc2N1` [Example 27-04] as the molecule, how does the IC50 read?
Answer: Its IC50 is under 1000 nM.

Question: Which IC50 does the source give for `CCCOc1cccc(O)c1-c1cc(C2CCNCC2)c2c(n1)NC(=O)CC2` [Example 27-05] here?
Answer: Its IC50 is under 1000 nM.

Question: Which IC50 does the source give for `CNC(=O)c1cc2c(C3CCCNC3)cc(-c3c(O)cccc3OCC3CC3)nc2[nH]c1=O` (centres unmarked) [Example 31-03] here?
Answer: Its IC50 is under 1000 nM.

Question: With `CN(C)C(=O)c1cc2c(C3CCCNC3)cc(-c3c(O)cccc3OCC3CC3)nc2[nH]c1=O` (centres unmarked) [Example 31-04] as the molecule, how does the IC50 read?
Answer: The IC50 was 1000 to 10000 nM.

Question: For `O=C(c1cc2c(C3CCCNC3)cc(-c3c(O)cccc3OCC3CC3)nc2[nH]c1=O)N1CCCC1` (centres unmarked) [Example 31-05], which IC50 is on record?
Answer: Its IC50 is 1000 to 10000 nM.

Question: Which IC50 does the source give for `O=C(NCc1ccccc1)c1cc2c(C3CCCNC3)cc(-c3c(O)cccc3OCC3CC3)nc2[nH]c1=O` (centres unmarked) [Example 31-06] here?
Answer: Its IC50 is under 1000 nM.

Question: `COCCNC(=O)c1cc2c(C3CCCNC3)cc(-c3c(O)cccc3OCC3CC3)nc2[nH]c1=O` (centres unmarked) [Example 31-07] was tested. Which IC50 did it give?
Answer: The IC50 was under 1000 nM.

Question: For `O=C(c1cc2c(C3CCCNC3)cc(-c3c(O)cccc3OCC3CC3)nc2[nH]c1=O)N1CCOCC1` (centres unmarked) [Example 31-08], which IC50 is on record?
Answer: Its IC50 is 1000 to 10000 nM.

Question: Which IC50 does the source give for `O=C(c1cc2c(C3CCCNC3)cc(-c3c(O)cccc3OCC3CC3)nc2[nH]c1=O)N1CCNCC1` (centres unmarked) [Example 31-09] here?
Answer: Its IC50 is over 10000 nM.

Question: `CC(C)NC(=O)c1cc2c(C3CCCNC3)cc(-c3c(O)cccc3OCC3CC3)nc2[nH]c1=O` (centres unmarked) [Example 31-10] was tested. Which IC50 did it give?
Answer: The IC50 was under 1000 nM.

Question: For `CN(C)CCNC(=O)c1cc2c(C3CCCNC3)cc(-c3c(O)cccc3OCC3CC3)nc2[nH]c1=O` (centres unmarked) [Example 31-11], which IC50 is on record?
Answer: Its IC50 is under 1000 nM.

Question: How did the IC50 turn out when `O=C(NC1Cc2ccccc2C1)c1cc2c(C3CCCNC3)cc(-c3c(O)cccc3OCC3CC3)nc2[nH]c1=O` (centres unmarked) [Example 31-12] was run?
Answer: Its IC50 is under 1000 nM.

Question: Which IC50 does the source give for `O=C(NC(c1ccccc1)c1ccccc1)c1cc2c(C3CCCNC3)cc(-c3c(O)cccc3OCC3CC3)nc2[nH]c1=O` (centres unmarked) [Example 31-13] here?
Answer: The IC50 was under 1000 nM.

Question: How did the IC50 turn out when `C[C@H](NC(=O)c1cc2c(C3CCCNC3)cc(-c3c(O)cccc3OCC3CC3)nc2[nH]c1=O)c1ccccc1` (some centres unmarked) [Example 31-14] was run?
Answer: The IC50 was under 1000 nM.

Question: How did the IC50 turn out when `C[C@@H](NC(=O)c1cc2c(C3CCCNC3)cc(-c3c(O)cccc3OCC3CC3)nc2[nH]c1=O)c1ccccc1` (some centres unmarked) [Example 31-15] was run?
Answer: Its IC50 is under 1000 nM.

Question: With `C[C@H](NC(=O)c1cc2c(C3CCCNC3)cc(-c3c(O)cccc3OCC3CC3)nc2[nH]c1=O)C(=O)O` (some centres unmarked) [Example 31-16] as the molecule, how does the IC50 read?
Answer: The IC50 was 1000 to 10000 nM.

Question: With `O=C(NCCc1ccccc1)c1cc2c(C3CCCNC3)cc(-c3c(O)cccc3OCC3CC3)nc2[nH]c1=O` (centres unmarked) [Example 31-17] as the molecule, how does the IC50 read?
Answer: The IC50 was 1000 to 10000 nM.

Question: How did the IC50 turn out when `O=C(NC1CCCCC1)c1cc2c(C3CCCNC3)cc(-c3c(O)cccc3OCC3CC3)nc2[nH]c1=O` (centres unmarked) [Example 31-18] was run?
Answer: Its IC50 is under 1000 nM.

Question: For `O=C(NCC1CCCCC1)c1cc2c(C3CCCNC3)cc(-c3c(O)cccc3OCC3CC3)nc2[nH]c1=O` (centres unmarked) [Example 31-19], which IC50 is on record?
Answer: The IC50 was over 10000 nM.

Question: How did the IC50 turn out when `O=C(NCCO)c1cc2c(C3CCCNC3)cc(-c3c(O)cccc3OCC3CC3)nc2[nH]c1=O` (centres unmarked) [Example 31-20] was run?
Answer: The IC50 was 1000 to 10000 nM.

Question: Which IC50 does the source give for `O=C(NC1CC1)c1cc2c(C3CCCNC3)cc(-c3c(O)cccc3OCC3CC3)nc2[nH]c1=O` (centres unmarked) [Example 31-21] here?
Answer: The IC50 was under 1000 nM.

Question: `O=C(NC1CCC1)c1cc2c(C3CCCNC3)cc(-c3c(O)cccc3OCC3CC3)nc2[nH]c1=O` (centres unmarked) [Example 31-22] was tested. Which IC50 did it give?
Answer: Its IC50 is under 1000 nM.

Question: With `O=C(NC1CCCC1)c1cc2c(C3CCCNC3)cc(-c3c(O)cccc3OCC3CC3)nc2[nH]c1=O` (centres unmarked) [Example 31-23] as the molecule, how does the IC50 read?
Answer: The IC50 was under 1000 nM.

Question: How did the IC50 turn out when `O=C(NC1CCCCCC1)c1cc2c(C3CCCNC3)cc(-c3c(O)cccc3OCC3CC3)nc2[nH]c1=O` (centres unmarked) [Example 31-24] was run?
Answer: The IC50 was under 1000 nM.

Question: How did the IC50 turn out when `CCC(CC)NC(=O)c1cc2c(C3CCCNC3)cc(-c3c(O)cccc3OCC3CC3)nc2[nH]c1=O` (centres unmarked) [Example 31-25] was run?
Answer: The IC50 was under 1000 nM.

Question: With `CCCC(CCC)NC(=O)c1cc2c(C3CCCNC3)cc(-c3c(O)cccc3OCC3CC3)nc2[nH]c1=O` (centres unmarked) [Example 31-26] as the molecule, how does the IC50 read?
Answer: Its IC50 is under 1000 nM.

Question: Which IC50 does the source give for `O=C(NCC(F)(F)F)c1cc2c(C3CCCNC3)cc(-c3c(O)cccc3OCC3CC3)nc2[nH]c1=O` (centres unmarked) [Example 31-27] here?
Answer: The IC50 was under 1000 nM.

Question: For `N#Cc1c(N2CCCC(C(N)=O)C2)cc(-c2ccccc2O)nc1N` (centres unmarked) [Example 34-06], which IC50 is on record?
Answer: Its IC50 is over 10000 nM.

Question: `N#Cc1c(NC2CCNCC2)cc(-c2ccccc2O)nc1N` [Example 34-07] was tested. Which IC50 did it give?
Answer: The IC50 was 1000 to 10000 nM.

Question: How did the IC50 turn out when `N#Cc1c(N2CCCNCC2)cc(-c2ccccc2O)nc1N` [Example 34-08] was run?
Answer: Its IC50 is 1000 to 10000 nM.

Question: With `N#Cc1c(N2CCNCC2)cc(-c2ccccc2O)nc1N` [Example 34-09] as the molecule, how does the IC50 read?
Answer: Its IC50 is 1000 to 10000 nM.

Question: With `N#Cc1c(NCCN)cc(-c2ccccc2O)nc1N` [Example 34-10] as the molecule, how does the IC50 read?
Answer: The IC50 was under 1000 nM.

Question: With `N#Cc1c(NCCCN)cc(-c2ccccc2O)nc1N` [Example 34-11] as the molecule, how does the IC50 read?
Answer: Its IC50 is 1000 to 10000 nM.

Question: For `CNCCNc1cc(-c2ccccc2O)nc(N)c1C#N` [Example 34-12], which IC50 is on record?
Answer: Its IC50 is under 1000 nM.

Question: Which IC50 does the source give for `N#Cc1c(NCCNCc2ccccc2)cc(-c2ccccc2O)nc1N` [Example 34-13] here?
Answer: Its IC50 is under 1000 nM.

Question: Which IC50 does the source give for `N#Cc1c(NCCNCc2ccccc2)cc(-c2c(O)cccc2OCC2CC2)nc1N` [Example 34-15] here?
Answer: Its IC50 is under 1000 nM.

Question: For `N#Cc1c(NCCNC(=O)c2ccccc2)cc(-c2c(O)cccc2OCC2CC2)nc1N` [Example 34-16], which IC50 is on record?
Answer: Its IC50 is under 1000 nM.

Question: For `N#Cc1c(NCCNS(=O)(=O)c2ccccc2)cc(-c2c(O)cccc2OCC2CC2)nc1N` [Example 34-17], which IC50 is on record?
Answer: The IC50 was over 10000 nM.

Question: For `N#Cc1c(NCCNC(=O)Nc2ccccc2)cc(-c2c(O)cccc2OCC2CC2)nc1N` [Example 34-18], which IC50 is on record?
Answer: The IC50 was under 1000 nM.

Question: `CC(=O)NCCNc1cc(-c2c(O)cccc2OCC2CC2)nc(N)c1C#N` [Example 34-19] was tested. Which IC50 did it give?
Answer: Its IC50 is under 1000 nM.
